Earlier results as cited in patent US12042566B2, “Formulations of homotaurines and salts thereof” (Confluence Pharmaceuticals, LLC, priority 2017, dated 2024).

Legend:
[1] = humans, reportedly
[2] = high solubility and low passive permeability

CC(=O)NCCCS(=O)(=O)O [acamprosate, 3-(Acetylamino)propylsulfonic acid]
oral bioavailability [1]: about 11%
Biopharmaceutics Classification System (BCS) class [2]: Class III
